Assay results: ChEMBL document CHEMBL1201862, “PubChem BioAssay data set” (2004)
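A five-concentration, 48-hour dose response in 96-well plates underlies each endpoint, interpolated linearly between surrounding concentrations. Abbreviation: GI50, concentration required for 50% inhibition of growth.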 Activity calls are given as the source filed them. Cut-off read from the data, not from the text of the source: active = GI50 up to about 1.1 µM and inactive = higher.

What was measured:
Experiment in all cases: inhibition of tumour cell growth, NCI panel, 48 h
786-0 = tested on: 786-0
A498 = tested on: A498
A549 = tested on: A549
ACHN = tested on: ACHN
BT-549 = tested on: BT-549
CAKI-1 = tested on: CAKI-1
CCRF-CEM = tested on: CCRF-CEM
COLO 205 = tested on: COLO 205
DLD-1 = tested on: DLD-1
DMS-273 = tested on: DMS-273
EKVX = tested on: EKVX
HCC 2998 = tested on: HCC 2998
HCT-116 = tested on: HCT-116
HCT-15 = tested on: HCT-15
HL-60 = tested on: HL-60
HOP-18 = tested on: HOP-18
HOP-62 = tested on: HOP-62
HOP-92 = tested on: HOP-92
HT-29 = tested on: HT-29
Hs-578T = tested on: Hs-578T
IGROV-1 = tested on: IGROV-1
K562 = tested on: K562
KM-20L2 = tested on: KM-20L2
KM12 = tested on: KM12
LOX IMVI = tested on: LOX IMVI
M14 = tested on: M14
MCF7 = tested on: MCF7
MDA-MB-231 = tested on: MDA-MB-231
MDA-MB-435 = tested on: MDA-MB-435
MDA-N = tested on: MDA-N
MOLT-4 = tested on: MOLT-4
Malme-3M = tested on: Malme-3M
NCI-H226 = tested on: NCI-H226
NCI-H23 = tested on: NCI-H23
NCI-H460 = tested on: NCI-H460
NCI-H522 = tested on: NCI-H522
NCI/ADR-RES = tested on: NCI/ADR-RES
OVCAR-3 = tested on: OVCAR-3
OVCAR-4 = tested on: OVCAR-4
OVCAR-5 = tested on: OVCAR-5
OVCAR-8 = tested on: OVCAR-8
PC-3 = tested on: PC-3
RPMI-8226 = tested on: RPMI-8226
RXF 393 = tested on: RXF 393
SF-268 = tested on: SF-268
SF-295 = tested on: SF-295
SF-539 = tested on: SF-539
SK-MEL-28 = tested on: SK-MEL-28
SK-MEL-5 = tested on: SK-MEL-5
SN12C = tested on: SN12C
SNB-19 = tested on: SNB-19
SNB-75 = tested on: SNB-75
SNB-78 = tested on: SNB-78
SR = tested on: SR
SW-620 = tested on: SW-620
T47D = tested on: T47D
TK-10 = tested on: TK-10
U-251 = tested on: U-251
UACC-257 = tested on: UACC-257
UACC-62 = tested on: UACC-62
UO-31 = tested on: UO-31
XF498 = tested on: XF498
DMS-114 = tested on: DMS-114
M19-MEL = tested on: M19-MEL
SK-MEL-2 = tested on: SK-MEL-2
SK-OV-3 = tested on: SK-OV-3

## COc1cc([C@H]2c3[nH]c4ccccc4c3C[C@H]3COC(=O)N32)cc(OC)c1O
786-0
  GI50: 145 nM (active)
A498
  GI50: 50.9 nM (active)
A549
  GI50: 79.2 nM (active)
ACHN
  GI50: 163 nM (active)
BT-549
  GI50: 29200 nM (inactive)
CAKI-1
  GI50: 39.5 nM (active)
CCRF-CEM
  GI50: 20.9 nM (active)
COLO 205
  GI50: 166 nM (active)
DLD-1
  GI50: 132 nM (active)
DMS-273
  GI50: 16.3 nM (active)
EKVX
  GI50: 800 nM (active)
HCC 2998
  GI50: 143 nM (active)
HCT-116
  GI50: 34.4 nM (active)
HCT-15
  GI50: 25.6 nM
HL-60
  GI50: 17.6 nM (active)
HOP-18
  GI50: 64300 nM (inactive)
HOP-62
  GI50: 46.2 nM (active)
HOP-92
  GI50: 2270 nM (inactive)
HT-29
  GI50: 22.8 nM (active)
Hs-578T
  GI50: 33.5 nM (active)
IGROV-1
  GI50: 50.2 nM (active)
K562
  GI50: 15.3 nM (active)
KM-20L2
  GI50: 40 nM (active)
KM12
  GI50: 20.2 nM (active)
LOX IMVI
  GI50: < 10 nM (active)
M14
  GI50: < 38.6 nM (active)
MCF7
  GI50: < 10 nM (active)
MDA-MB-231
  GI50: 40.8 nM (active)
MDA-MB-435
  GI50: < 10 nM (active)
MDA-N
  GI50: < 10 nM (active)
MOLT-4
  GI50: 48.8 nM (active)
Malme-3M
  GI50: 3950 nM (inactive)
NCI-H226
  GI50: 422 nM (active)
NCI-H23
  GI50: 74.8 nM (active)
NCI-H460
  GI50: 31.2 nM (active)
NCI-H522
  GI50: 15 nM (active)
NCI/ADR-RES
  GI50: 66.7 nM (active)
OVCAR-3
  GI50: < 10 nM (active)
OVCAR-4
  GI50: 39300 nM (inactive)
OVCAR-5
  GI50: 13300 nM (inactive)
OVCAR-8
  GI50: 131 nM (active)
PC-3
  GI50: 37.8 nM (active)
RPMI-8226
  GI50: 40.4 nM (active)
RXF 393
  GI50: 40.5 nM (active)
SF-268
  GI50: 22.1 nM (active)
SF-295
  GI50: 18.9 nM (active)
SF-539
  GI50: 39.6 nM (active)
SK-MEL-28
  GI50: 1660 nM (inactive)
SK-MEL-5
  GI50: 19.3 nM (active)
SN12C
  GI50: 2430 nM (inactive)
SNB-19
  GI50: 4900 nM (inactive)
SNB-75
  GI50: 32.4 nM (active)
SNB-78
  GI50: 2300 nM (inactive)
SR
  GI50: 13.2 nM (active)
SW-620
  GI50: 26.8 nM (active)
T47D
  GI50: 42400 nM (inactive)
TK-10
  GI50: 807 nM (active)
U-251
  GI50: 32.6 nM (active)
UACC-257
  GI50: > 100000 nM (inactive)
UACC-62
  GI50: 20.9 nM (active)
UO-31
  GI50: 246 nM (active)
XF498
  GI50: 67.1 nM (active)

## C/C(=N\NC(N)=S)c1ccc(C2CCCCC2)cc1
786-0
  GI50: 13600 nM (inactive)
A549
  GI50: 43400 nM (inactive)
CAKI-1
  GI50: 25600 nM (inactive)
COLO 205
  GI50: 12000 nM (inactive)
DMS-114
  GI50: 7030 nM (inactive)
EKVX
  GI50: 71400 nM (inactive)
HCC 2998
  GI50: 16400 nM (inactive)
HCT-116
  GI50: 14400 nM (inactive)
HOP-18
  GI50: 32100 nM (inactive)
HOP-62
  GI50: 37200 nM (inactive)
HT-29
  GI50: 10500 nM (inactive)
IGROV-1
  GI50: 12000 nM (inactive)
K562
  GI50: 12200 nM (inactive)
KM-20L2
  GI50: 14700 nM (inactive)
KM12
  GI50: 15900 nM (inactive)
M14
  GI50: 9590 nM (inactive)
M19-MEL
  GI50: 27500 nM (inactive)
MOLT-4
  GI50: 4580 nM (inactive)
Malme-3M
  GI50: 18500 nM (inactive)
NCI-H23
  GI50: 16900 nM (inactive)
OVCAR-3
  GI50: 14600 nM (inactive)
OVCAR-4
  GI50: 14400 nM (inactive)
OVCAR-5
  GI50: 11100 nM (inactive)
OVCAR-8
  GI50: 15000 nM (inactive)
RPMI-8226
  GI50: 22200 nM (inactive)
RXF 393
  GI50: 12600 nM (inactive)
SF-268
  GI50: > 100000 nM (inactive)
SF-295
  GI50: 4560 nM (inactive)
SF-539
  GI50: 19800 nM (inactive)
SK-MEL-28
  GI50: 16600 nM (inactive)
SK-MEL-2
  GI50: 13500 nM (inactive)
SK-OV-3
  GI50: 32000 nM (inactive)
SNB-19
  GI50: 40500 nM (inactive)
SNB-78
  GI50: 25900 nM (inactive)
SR
  GI50: 21400 nM (inactive)
TK-10
  GI50: 26000 nM (inactive)
U-251
  GI50: 19000 nM (inactive)
UACC-62
  GI50: 14200 nM (inactive)
UO-31
  GI50: 13000 nM (inactive)
XF498
  GI50: 113 nM (active)
